Reference: patent publication US12329788B2, “Synbiotic compositions” (Evonik Operations GmbH, priority 2018, dated 2025)
Where a SMILES comes first, the peptide text is derived from it.

System: Clostridium XIVa cluster
Experiment: i-screen microbiota composition by 16S rRNA V4 sequencing, Clostridium XIVa
Assay type: cell-based, human
Settings: 24 h SIEM, amino acids 3.5 mM, dipeptides 7 mM
Excerpt: To determine the effect of the probiotic strains Bacillus subtilis DSM 32315, Bacillus subtilis DSM 32540, Bacillus licheniformis DSM 32314 and Bacillus amyloliquefaciens CECT 5940 on adult colonic microbiota, an intestinal screening model was used (i-screen, TNO, the Netherlands). Therefore the i-screen model was inoculated with standard human adult fecal microbiota material, which consisted of pooled fecal donations from 6 healthy adult volunteers (Caucasian, European lifestyle and nutrition). The fecal material was mixed and grown in a fed-batch fermenter for 40 hours to create a standardized microbiota as described previously. These standard adult gut microbiota sets were stored at −80° C. in 12% glycerol.
The intestinal microbiota was cultured in vitro in modified standard ileal efflux medium (SIEM), the composition of which was described by and modified as follows: 0.047 g/l pectin, 0.047 g/l xylan, 0.047 g/l arabinogalactan, 0.047 g/l amylopectin, 0.392 g/l starch, 24.0 g/l casein, 24.0 Bacto pepton, 0.4 ox-bile and 0.2 g/l cysteine. All components were supplied by Trititium Microbiology (Veldhoven, The Netherlands). The pH of the medium was adjusted to 5.8.
For the i-screen fermentations, the precultured standardized fecal inoculum was diluted 50 times in 1350 μl modified SIEM. All experiments have been carried out in triplicates. The strains Bacillus subtilis (DSM 32315), Bacillus subtilis DSM 32540, Bacillus licheniformis DSM 32314 and Bacillus amyloliquefaciens CECT 5940 were precultured separately in 50 ml LBKelly medium, for about 16 h. Incubation was done in shaking flasks at 37° C. under aerobic conditions. After incubation, bacterial density was determined by optical density measurement at 600 nm. A final stock solution of 1×10^10 cells/ml was prepared in 1 ml buffer solution (0.1 mM MES pH 6). The suspension of each strain was introduced into the i-screen to a final level of about 10^9 cells/ml, respectively
The i-screen incubation was performed under following gas conditions: 0.2% O2, 0.2% CO2, 10% H2, 89.6% N2.
DNA extraction for the sequencing of 16S rRNA coding genes was performed as described by Ladirat et al. (2013) with some minor modifications. Approximately 100 μl of the culture materials were added to the wells of a 96 well plate containing per well 300 μl of lysis buffer (Mag Mini DNA Isolation Kit, LGC ltd, UK), 500 μl zirconium beads (0.1 mm; BioSpec products, Bartlesville, OK, USA) and 500 μl of phenol saturated with Tris-HCI (pH 8.0; Carl Roth GMBH, Germany). The 96 well plate was placed in a Mini-BeadBeater-96 (BioSpec products, Bartlesville, Okla, USA) for 2 min at 2100 oscillations/min. DNA was subsequently purified using the Agowa Mag Mini DNA Isolation Kit according to the manufacturer recommendations. Extracted DNA was eluted in a final volume of 60 μl buffer.
The microbiota composition was analyzed by 16S rRNA gene amplicon sequencing of the V4 Hypervariable Region. This was Achieved Through a Series of Steps:
Subsequently, PCR amplicons of the V4 hypervariable region of the 16S rRNA gene were generated for the individual samples by amplification of […] of DNA as described by (2013), using F515/R806 primers. Primers included Illumina adapters and a unique 8-nt sample index sequence key. A mock control was included for technical quality control. The amount of amplified DNA per sample was quantified using the dsDNA 910 Reagent Kit on the Fragment Analyzer (Advanced Analytical). The amplicon libraries were pooled in equimolar amounts and purified from 1,2% agarose gel using the Gel Extraction Kit (Qiagen). The Library was quantified using the Quant-iT™ PicoGreen® dsDNA Assay Kit (Thermo Fisher Scientific). Paired-end sequencing of amplicons was conducted on the Illumina MiSeq platform (Illumina, Eindhoven, The Netherlands).
The sequence data was processed with Mothur v.1.36.1 [26] in line with the mothur MiSeq SOP [24].

[1] = microbiota + CECT 5940 (first group so headed, r13-r15)
[2] = microbiota + CECT 5940 (second group so headed, r16-r18)

SMILES | Clostridium_XIVa relative abundance [1] [%] | Clostridium_XIVa relative abundance [2] [%] | Clostridium_XIVa relative abundance (microbiota + DSM 32315) [%] | Clostridium_XIVa relative abundance (microbiota, no probiotic cells) [%]
CC(=O)N[C@@H](C)C(=O)N[C@@H](CCC(N)=O)C(=O)O [Ac-Ala-Gln] (Ac-Ala-Gln-OH) | 1 | 4 | 2 | 1
C[C@H](N)C(=O)N[C@@H](CCC(N)=O)C(=O)O [Ala-Gln, Alanine-Glutamine] (H-Ala-Gln-OH) | 10 | 6 | 4 | 2
NC(=O)CC[C@H](N)C(=O)O [Gln, glutamine, reference compound] | 1 | 9 | 2 | 1
N[C@@H](CCC(=O)O)C(=O)O [Glu, glutamic acid, reference compound] | 1 | 1 | 3 | 1
NCC(=O)O.N[C@@H](CCC(=O)O)C(=O)O [Gly-Glu, Glycine-Glutamic acid] | 9 | 10 | 8 | 4
